Reference: patent US20100184770A1, “COMPOUNDS” (Glaxo Group Limited, priority 2006, published 2010)

Tests used:
[1] = test system: histamine-induced congestion; experiment: Intranasal challenge method: whole body plethysmography; format: in vivo, guinea pigs; details: for inhibition of the response to histamine challenge (PenH AUC): dosed intranasally at 1 mg/ml either 1 hr or 24 hr before histamine challenge
Protocol: Female Dunkin-Hartley guinea pigs 150-250 g are sensitised twice daily for 5 days (week 1) with ovalbumin (OVA) and aluminium hydroxide (Al(OH)3 or Alum) in physiological saline, 25 μl/nostril. Solution is made up at 20 μg/ml OVA, 180 mg/ml Alum. During weeks 2 and 3 animals receive 25 μl/nostril of OVA (5 mg/ml) once daily. During Week 4 guinea pigs will be entered into study but are continually sensitized as per weeks 2 and 3 until the day before dosing with compound or vehicle.
Pretreatment with test compound is performed at various times prior to histamine challenge. Efficacy dose-response curves are determined 1 hr and/or 3 hr after dosing whereas duration of action may be studied up to 7 days post dose. Test compounds are formulated as solutions in 0.9% sterile saline or suspensions in 0.9% sterile saline/tween80.
Guinea pigs were anaesthetised with isoflurane (5%, 2-31/min O2), placed in a supine position, and 25 μl of test compound or vehicle dosed into each nostril using a Gilson pipette. After dosing, animals remain supine for at least 30 seconds during recovery from anaesthesia.
At 30 minutes before the time of histamine challenge, guinea pigs are dosed with atropine sulphate (Sigma A0257, dissolved in saline), 1 mg/kg i.p. Animals are then placed into whole body plethysmograph systems (Buxco® Electronics) where the parameter PenH area under curve (AUC) is recorded as outlined in […], E., SCHWARZE, J., TAKEDA, K., OSHIBA, A., LARSEN, L., IRVIN, C. G. & GELFAND, E. W. (1997) Noninvasive measurement of airway responsiveness in allergic mice using barometric plethysmography. Am. J. Respir. Crit. Care Med. 156, 766-775.
Hamelmann et al. A 10 minute baseline AUC is recorded and if this value is over 1000, the animals are excluded.
After the stipulated pre-dose time has been reached, guinea pigs are re-anaesthetised with isoflurane and dosed with either 10 mM or 15 mM histamine or phosphate-buffered saline (PBS), (25 μl per nostril). On recovery from anaesthesia animals are returned to the individual plethysmograph chambers and 4×10 min consecutive PenH AUC recordings are made. These recordings are summed to give a cumulative AUC over 40 mins post histamine challenge for each animal. Data are analysed using ANOVA with post-hoc Fishers LSD test (general linear models, Statistica®) and finally Hochberg adjustment. Inhibition of histamine-induced congestion is determined by statistically significant differences between the mean responses of compound pre-treated groups compared to the vehicle pre-treated, histamine-challenged group.

human H1 receptor [2] = molecular target: T1, human H1 receptor (Homo sapiens, UniProt P35367); experiment: Histamine H1 functional antagonist assay: determination of functional pKi values (FLIPR); format: cell-based; details: CHO cells expressing human H1 receptor, histamine at EC80, FLIPR, read-out: average pKi (pKb) at H1 (converted)
T1 construct: expressed in transfected cells
T1 sequence (P35367 whole entry): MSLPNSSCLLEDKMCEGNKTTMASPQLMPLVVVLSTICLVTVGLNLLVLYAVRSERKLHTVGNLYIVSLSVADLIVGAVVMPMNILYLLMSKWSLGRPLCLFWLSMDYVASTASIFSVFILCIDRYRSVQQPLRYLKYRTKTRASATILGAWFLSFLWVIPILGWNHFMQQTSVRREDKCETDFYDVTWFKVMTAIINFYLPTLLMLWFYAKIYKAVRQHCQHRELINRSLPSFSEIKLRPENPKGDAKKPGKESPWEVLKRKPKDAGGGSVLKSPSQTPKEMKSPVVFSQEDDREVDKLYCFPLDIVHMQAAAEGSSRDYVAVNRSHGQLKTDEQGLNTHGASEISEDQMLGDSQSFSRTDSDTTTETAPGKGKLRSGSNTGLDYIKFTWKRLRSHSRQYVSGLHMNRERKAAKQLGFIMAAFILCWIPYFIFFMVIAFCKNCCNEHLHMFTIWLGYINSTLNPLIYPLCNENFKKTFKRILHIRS
Protocol: (§1) 1. Generation of Histamine H1 Cell Line The human H1 receptor is cloned using known procedures described in the literature [Biochem. Biophys. Res. Commun., 201(2):894 (1994)]. Chinese hamster ovary (CHO) cells stably expressing the human H1 receptor are generated according to known procedures described in the literature [Br. J. Pharmacol., 117(6):1071 (1996)].
The histamine H1 cell line is seeded into non-coated black-walled clear bottom 384-well tissue culture plates in alpha minimum essential medium (Gibco/Invitrogen, cat no. 22561-021), supplemented with 10% dialysed foetal calf serum (Gibco/Invitrogen cat no. 12480-021) and 2 mM L-glutamine (Gibco/Invitrogen cat no 25030-024) and is maintained overnight at 5% CO2, 37° C.
Excess medium is removed from each well to leave 10 μl. 30 μl loading dye (250 μM Brilliant Black, 2 μM Fluo-4 diluted in Tyrodes buffer+probenecid (145 mM NaCl, 2.5 mM KCl, 10 mM HEPES, 10 mM D-glucose, 1.2 mM MgCl2, 1.5 mM CaCl2, 2.5 mM probenecid, pH adjusted to 7.40 with NaOH 1.0 M)) is added to each well and the plates are incubated for 60 min at 5% CO2, 37° C.
10 μl of test compound, diluted to the required concentration in Tyrodes buffer+probenecid (or 10 μl Tyrodes buffer+probenecid as a control) is added to each well and the plate is incubated for 30 min at 37° C., 5% CO2. The plates are then placed into a FLIPR™ (Molecular. Devices, UK) to monitor cell fluorescence (λex=488 nm, λEM=540 nm) in the manner described in Sullivan et al., (In: Lambert DG (ed.), Calcium Signaling Protocols, New Jersey: Humana Press, 1999, 125-136) before and after the addition of […] at a concentration that results in the final assay concentration of histamine being EC80.
Functional antagonism is indicated by a suppression of histamine induced increase in fluorescence, as measured by the FLIPR™ system (Molecular Devices). By means of concentration effect curves, functional affinities are determined using standard pharmacological mathematical analysis.

human H1 receptor [3] = molecular target: T1, human H1 receptor; experiment: Histamine H1 functional antagonist assay: determination of antagonist duration (washout, FLIPR); format: cell-based; details: at one or more time points after washout
Protocol: as §1
To determine the antagonist duration, cells are cultured overnight in non-coated black-walled clear bottom 96-well tissue culture plates, are washed with PBS and are incubated with a concentration of antagonist chosen to give an approximate DR in the range 30-300. Following the 30 min antagonist incubation period, the cells are washed two or three times with 200 μl of PBS and then 100 μl Tyrodes buffer is added to each well to initiate antagonist dissociation. Following incubation for predetermined times, typically 30-270 min at 37° C., the cells are then washed again with 200 μl PBS and are incubated with 100 Tyrodes buffer containing Brilliant Black, probenecid and Fluo-4 for 45 min at 37° C., as described above. After this period, the cells are challenged with histamine in the FLIPR™ as described above. The dose ratio at each time point is used to determine the fractional H1 receptor occupancy by the following equation: fractional receptor occupancy=(DR-1)/DR. The decrease in receptor occupancy over time approximates to a straight line and is analysed by linear regression. The slope of this straight line fit is used as an index of the dissociation rate of the antagonist. The dose ratios for antagonist treated cells and for antagonist treated and washed cells at each time point are used to calculate a relative dose ratio (rel DR) which is also used as an index of antagonist duration. Antagonists with long duration of action produce rel DR values close to 1, and antagonists with short duration of action produce rel DR values that approaches the dose ratio value obtained for antagonist treatment alone.

| SMILES | inhibition of the response to histamine challenge (PenH AUC) [1] | inhibition of the response to histamine challenge (PenH AUC), 3 hr timepoint ([1]; another experiment, dosed intranasally at 1 mg/ml and at 10 mg/ml 3 hr before histamine challenge) | inhibition of the response to histamine challenge (PenH AUC), 24 hr timepoint ([1]; another experiment, dosed intranasally at 1 mg/ml and at 10 mg/ml 24 hr before histamine challenge) | Ki (human H1 receptor [2]) | duration of action compared with azelastine in the histamine H1 functional antagonist assay (human H1 receptor [3]) |
| --- | --- | --- | --- | --- | --- |
| CN1CCCC(n2nc(Cc3ccc(Cl)cc3)c3ccccc3c2=O)CC1 (centres unmarked) [azelastine, reference compound] | failed to show a similar duration of action |  |  |  |  |
| COCCCC(=O)NCCN1CCC[C@@H]1Cn1nc(Cc2ccc(Cl)cc2)c2ccccc2c1=O.O=C(O)C(F)(F)F [Example 34c, N-[2-((2R)-2-{[4-[(4-Chlorophenyl)methyl]-1-oxo-2(1H)-phthalazinyl]methyl}-1-pyrrolidinyl)ethyl]-4-(methyloxy)butanamide, trifluoroacetate salt] | significantly (p<0.05) inhibited the response at both timepoints |  |  |  |  |
| COCCCC(=O)NCCN1CCC[C@@H]1Cn1nc(Cc2ccc(Cl)cc2)c2ccccc2c1=O [Example 34, N-[2-((2R)-2-{[4-[(4-Chlorophenyl)methyl]-1-oxo-2(1H)-phthalazinyl]methyl}-1-pyrrolidinyl)ethyl]-4-(methyloxy)butanamide] | significantly (p<0.05) inhibited the response at both timepoints | significantly (p<0.05) inhibited the response at the 3 hr timepoint | not the 24 hr timepoint |  |  |
| O=C(CC(F)(F)F)NCCN1CCC[C@@H]1Cn1nc(Cc2ccc(Cl)cc2)c2ccccc2c1=O.O=C(O)C(F)(F)F [Example 36b, N-[2-((2R)-2-{[4-[(4-chlorophenyl)methyl]-1-oxo-2(1H)-phthalazinyl]methyl}-1-pyrrolidinyl)ethyl]-3,3,3-trifluoropropanamide, trifluoroacetate] | significantly (p<0.05) inhibited the response at both timepoints |  |  | < 31.6 nM | longer duration of action than azelastine |
